{"source": "patent US20250059333A1", "about": "“BILAYER BIONIC DRUG-LOADED HYDROGEL, AND PREPARATION AND APPLICATION THEREOF” (Chengdu Hengkui Biotechnology Co., Ltd., priority 2022, published 2025)", "origin": "cited, not measured here", "settings": "relative to glutaraldehyde, a commonly used chemical cross-linking agent"}
{"compound": "COC(=O)C1=CO[C@@H](O)[C@@H]2C(CO)=CC[C@H]12", "note": "[genipin]", "values": [{"measurement": "toxicity lower than that of glutaraldehyde", "value": 10000, "unit": "times"}]}
